Like-named read-outs stand apart in the source and are kept apart here.
Assays:
[1] = biological target: T1, human ghrelin receptor (hGHS-R1a) (Homo sapiens, UniProt Q92847); details: Table 4; functional (agonist) activity at human ghrelin receptor; TFA salts unless otherwise noted
Excerpt: (§1) B. Aequorin Functional Assay (Ghrelin Receptor)
(§2) This cell line is typically constructed by transfection of the human ghrelin receptor into CHO-K1 cells co-expressing Gα16 and the mitochondrially targeted Aequorin (Ref #ES-WT-A5). • 1. […] Assay buffer: DMEM (Dulbecco's Modified Eagles Medium) containing 0.1% BSA (bovine serum albumin; pH 7.0). • 3. Coelenterazine (Molecular Probes, Leiden, The Netherlands). Final test concentrations (N=8) for compounds of the invention: 10, 1, 0.3, 0.1, 0.03, 0.01, 0.003, 0.001 μM. Compound Handling
(§3) Assay plates were then prepared by appropriate dilution in DMEM medium containing 0.1% BSA. Under these conditions, the maximal final DMSO concentration in the assay was <0.6%.
(§4) AequoScreen™ cells were collected from culture plates with Ca^2+ and Mg^2+-free phosphate buffered saline (PBS) supplemented with 5 mM EDTA, pelleted for 2 min at 1000×g, re-suspended in DMEM—Ham's F12 containing 0.1% BSA at a density of 5×10^6 cells/mL, and incubated O/N at rt in the presence of 5 μM coelenterazinc. After loading, cells were diluted with assay buffer to a concentration of 5×10^5 cells/mL.
(§5) For agonist testing, 50 μL of the cell suspension was mixed with 50 μL of the appropriate concentration of test compound or ghrelin (reference agonist) in 96-well plates (duplicate samples). Ghrelin (reference agonist) was tested at several concentrations concurrently with the test compounds in order to validate the experiment. The emission of light resulting from receptor activation in response to ghrelin or test compounds was recorded using the Hamamatsu FDSS 6000 reader (Hamamatsu Photonics K.K., Japan).
Analysis and Expression of Results
(§6) Results were expressed as Relative Light Units (RLU). […] EC50, Hill slope and % Emax values are reported.
(§7) Key Aspects of Method • 1. Assay performed on CHO-K1 cells expressing the transfected, cloned human ghrelin receptor (hGHS-R1a) and Gα16. • 2. Suspended cells incubated O/N with coelenterazine. • 3. Stimulation of hGHS-R1a activates Gα16, causing intercellular Ca2+ release which ultimately leads to the oxidation of coelenterazine and the emission of a quantitative luminescent signal. • 4. Ghrelin was used as the positive control. • 5.

[2] = biological target: T2, human growth hormone secretagogue receptor (hGHS-R1a) (Homo sapiens, UniProt Q92847); test: Competitive radioligand binding assay (ghrelin receptor), [125I]-ghrelin displacement
T2 construct: purchased PerkinElmer BioSignal #RBHGHSM, lot#1887; host or cells: HEK-293, stably transfected
T2 sequence (Q92847 whole entry): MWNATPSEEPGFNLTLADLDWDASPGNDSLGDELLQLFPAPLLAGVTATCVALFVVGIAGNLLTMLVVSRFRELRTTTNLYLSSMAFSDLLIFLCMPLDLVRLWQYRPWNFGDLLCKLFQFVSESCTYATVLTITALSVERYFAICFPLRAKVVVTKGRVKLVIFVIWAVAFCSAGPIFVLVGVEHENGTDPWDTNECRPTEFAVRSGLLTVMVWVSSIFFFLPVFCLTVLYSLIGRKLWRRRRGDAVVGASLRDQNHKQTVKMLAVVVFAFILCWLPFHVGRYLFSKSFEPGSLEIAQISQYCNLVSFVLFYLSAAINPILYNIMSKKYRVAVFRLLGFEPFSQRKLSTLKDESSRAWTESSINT
Experimental: The competitive binding assay at the human growth hormone secretagogue receptor (hGHS-R1a) was carried out analogously to assays described in the literature.
Multiscreen Harvest plates-GF/C (Millipore, #MAHFC1H60) • 4. […] Bottom seal (Millipore, #MATAH0P00) • 7. […] Binding Buffer: 25 mM Hepes (pH 7.4), 1 mM CaCl2, 5 mM MgCl2, 2.5 mM EDTA, 0.4% BSA Assay Volumes
Competition experiments were performed in a 300 μl filtration assay format. • 1. 220 μL of membranes diluted in binding buffer • 2. 40 μL of compound diluted in binding buffer • 3. […] Compound Handling
Compounds were provided frozen on dry ice at a stock concentration of 10 mM diluted in 100% DMSO and stored at −80° C. until the day of testing. On the test day, compounds were allowed to thaw at rt O/N and then diluted in assay buffer according to the desired test concentrations.
Plates were sealed with TopSeal-A, vortexed gently and incubated at rt for 30 min. The reaction was arrested by filtering samples through Multiscreen Harvest plates (pre-soaked in 0.5% polyethyleneimine) using a Tomtec Harvester, washed 9 times with 500 μL of cold 50 mM Tris-HCl (pH 7.4, 4° C.), and then plates were air-dried in a fumehood for 30 min. A bottom seal was applied to the plates prior to the addition of 25 μL of MicroScint-0 to each well. […] Results were expressed as counts per minute (cpm).
Data were analyzed by GraphPad Prism (GraphPad Software, San Diego, Calif.) using a variable slope non-linear regression analysis.
Compound structures for Tables 3A, 3B and 3D are presented with the various groups as defined for the general structure of formula I. For Tables 3B and 3D, in all entries, m, n and p are 0; X, Z1 and Z2 are each NH. For Table 3B, R1 is H for all entries. The tethers (T) are illustrated with the bonding to X and Z2 as indicated. The compounds themselves are shown for Table 3C.
• 1. […] Key Aspects of Method • 1. […] Results

[3] = biological target: T1, human ghrelin receptor (hGHS-R1a); test: cell-based
Excerpt: as §1, §2, §3, §4, §5
Analysis and Expression of Results
as §6, §7

[4] = tested on: gastric emptying in fasted rats; test: Gastric emptying in fasted rats (phenol red methylcellulose meal); assay type: in vivo, rat (Wistar); details: i.v. immediately after meal, 15 min
Experimental: To examine the effects of compounds of the invention in a model for gastroparesis, compounds were evaluated for possible effects on gastric emptying in fasted rats.
GHRP-6 and test samples were dissolved in vehicle of 9% HPBCD/0.9% NaCl. Immediately following oral administration of methylcellulose (2%) containing phenol red (0.05%) (2 mL/rat), test substances or vehicle (9% HPBCD/0.9% NaCl) were each administered intravenously (i.v.) at a dosing volume of 5 mL/kg.
Male Wistar rats were provided by LASCO (A Charles River Licensee Corporation, Taiwan). Space allocation for 6 animals was 45×23×15 cm. Animals were housed in APEC® cages and maintained in a controlled temperature (22° C.-24° C.) and humidity (60%-80%) environment with 12 h light, 12 h dark cycles for at least one week in the laboratory prior to being used. Free access to standard lab chow for rats (Lab Diet, Rodent Diet, PMI Nutrition International, USA) and tap water was granted. All aspects of this work including housing, experimentation and disposal of animals were performed in general accordance with the Guide for the Care and Use of Laboratory Animals (National Academy Press, Washington, D.C., 1996).
Test substances were each administered intravenously to a group of 5 O/N-fasted Wistar derived male rats weighing 200±20 g immediately after methylcellulose (2%) containing phenol red (0.05%) was administered orally at 2 mL/animal. […] Following protein precipitation by 20% trichloroacetic acid (0.5 mL) and re-alkalization of the supernatant with 0.1 N NaOH, total phenol red remaining in the stomach was determined by a colorimetric method at 560 nm. A 30 percent or more (≧30%) increase in gastric emptying, detected as the decrease in phenol red concentration in the stomach relative to the vehicle control group, is considered significant.
• 1. […] Total phenol red remaining in the stomach was quantified by a colorimetric method at 560 nm. • 5. A >30% increase in gastric emptying, detected based on the phenol red concentration in comparison to the control group, is considered significant. […]

[5] = Table 3C, binding activity at the human ghrelin receptor, class symbols, read-out: Ki
[6] = Table 4, binding at human ghrelin receptor, TFA salts unless otherwise noted, read-out: Ki
[7] = binding activity at the human ghrelin receptor, [125I]-ghrelin displacement, hGHS-R1a/HEK-293 membranes, read-out: Ki
[8] = [125I]-ghrelin displacement, hGHS-R1a HEK-293 membranes, read-out: Binding Activity at the Human Ghrelin Receptor (Ki)
[9] = Table 3B, binding at human ghrelin receptor, [125I]-ghrelin displacement, read-out: Ki

T1 sequence (Q92847 whole entry): as above

| Structure (SMILES) | EC50 [1] [nM] | Ki [2, 5] [nM] | Ki [2, 6] [nM] | EC50 [3] [nM] | Ki [2, 7] [nM] | Ki [2, 8] [nM] | Ki [2, 9] [nM] | gastric emptying of a solid meal in naïve rat [4] |
| --- | --- | --- | --- | --- | --- | --- | --- | --- |
| C[C@H]1NC(=O)C2(CCCC2)NCCOc2ccccc2C=CCNC(=O)[C@H](Cc2cccc(Cl)c2)NC1=O (stereo in doubt) [compound 351] | 1 to 100 | 10 to 100 | 10 to 100 | – | – | – | – | – |
| CCCC1NCCOc2ccccc2CCCNC(=O)C(Cc2ccc(O)cc2)NC(=O)CN(C)C1=O (centres unmarked) [compound 7] | – | – | 100 to 1000 | 1 to 100 | 100 to 10000 | – | – | – |
| CCCC1NCCOc2ccccc2C=CCNC(=O)C(Cc2ccccc2)NC(=O)CN(C)C1=O (centres unmarked) [compound 11] | – | – | 10 to 100 | 100 to 1000 | 10 to 100 | – | – | – |
| O=C1NC/C=C/c2ccccc2OCCNC2(CCCC2)C(=O)NC2(CCCC2)C(=O)N[C@H]1Cc1ccccc1 [compound 18] | 1 to 100 | 10 to 100 | 10 to 100 | – | 10 to 100 | – | – | – |
| CCC(C)C1NCCOc2ccccc2CCCNC(=O)C(Cc2ccc(-c3ccccc3)cc2)NC(=O)C(C)N(C)C1=O (centres unmarked) [compound 28] | – | – | 10 to 100 | 1 to 100 | 10 to 100 | – | – | – |
| CCC(C)C1NCc2ccccc2CCCCCNC(=O)C(Cc2ccccc2)NC(=O)C(C)N(C)C1=O (centres unmarked) [compound 38] | – | – | 10 to 100 | 100 to 1000 | 10 to 100 | – | – | – |
| CCCC1NCCOc2ccccc2C=CCNC(=O)C(Cc2ccccc2)NC(=O)C(C)N(C)C1=O (centres unmarked) [compound 39] | – | – | 0.1 to 10 | 100 to 1000 | 10 to 100 | – | – | – |
| CCC(C)C1NCCOc2ccccc2C=CCNC(=O)C(Cc2ccccc2)NC(=O)C(C)N(C)C1=O (centres unmarked) [compound 40] | – | – | 0.1 to 10 | 1 to 100 | 0.1 to 10 | – | – | – |
| CC(C)CC1NCCOc2ccccc2C=CCNC(=O)C(CC(C)C)NC(=O)C2(CCCC2)NC1=O (centres unmarked) [compound 47] | – | – | 100 to 1000 | 1 to 100 | 100 to 10000 | – | – | – |
| CC(C)C1NCCOc2ccccc2C=CCNC(=O)C(Cc2ccccc2)NC(=O)C2(CCOCC2)NC1=O (centres unmarked) [compound 140] | – | – | 100 to 1000 | 100 to 1000 | 100 to 10000 | – | – | – |
| COc1ccc(CC2NC(=O)C3(CCCC3)NC(=O)C(CC(C)C)NCCOc3ccccc3C=CCNC2=O)cc1 (centres unmarked) [compound 156] | – | – | 10 to 100 | 1 to 100 | 10 to 100 | – | – | – |
| CCC(C)C1NCCOc2ccccc2CCCNC(=O)C(Cc2cccnc2)NC(=O)C(C)N(C)C1=O (centres unmarked) [compound 170] | – | – | 10 to 100 | 100 to 1000 | 10 to 100 | – | – | – |
| CCC(C)C1NCCOc2ccccc2CCCNC(=O)C(CC(C)C)NC(=O)C(C)N(C)C1=O (centres unmarked) [compound 176] | – | – | 10 to 100 | 1 to 100 | 10 to 100 | – | – | – |
| CCC(C)C1NCCOc2cccnc2CCCNC(=O)C(Cc2ccccc2)NC(=O)C(C)N(C)C1=O (centres unmarked) [compound 177] | – | – | 10 to 100 | 1 to 100 | 10 to 100 | – | – | – |
| CCC(C)C1NCCOCC=CCCNC(=O)C(Cc2ccccc2)NC(=O)C(C)N(C)C1=O (centres unmarked) [compound 186] | – | – | 100 to 1000 | 100 to 1000 | 100 to 10000 | – | – | – |
| CCC(C)C1NCCCc2ccccc2C=CCCNC(=O)C(Cc2ccccc2)NC(=O)C(C)N(C)C1=O (centres unmarked) [compound 191] | – | – | 100 to 1000 | 100 to 1000 | – | 100 to 10000 | – | – |
| CCC(C)C1NCCCc2ccccc2CCCCNC(=O)C(Cc2ccccc2)NC(=O)C(C)N(C)C1=O (centres unmarked) [compound 192] | – | – | 10 to 100 | 100 to 1000 | – | 10 to 100 | – | – |
| CCC(C)C1NCc2ccccc2CC=CCNC(=O)C(Cc2ccccc2)NC(=O)C(C)N(C)C1=O (centres unmarked) [compound 193] | – | – | 100 to 1000 | 100 to 1000 | – | 100 to 10000 | – | – |
| CCC(C)C1NCc2ccccc2CC=CCCNC(=O)C(Cc2ccccc2)NC(=O)C(C)N(C)C1=O (centres unmarked) [compound 195] | – | – | 10 to 100 | 1 to 100 | – | 10 to 100 | – | – |
| CCC(C)C1NCCOc2ccc(C(=O)O)cc2CCCNC(=O)C(Cc2ccccc2)NC(=O)C(C)N(C)C1=O (centres unmarked) [compound 197] | – | – | 100 to 1000 | > 1000 | – | 100 to 10000 | – | – |
| CCC(C)C1NCCc2ccccc2CCCNC(=O)C(Cc2ccccc2)NC(=O)C(C)N(C)C1=O (centres unmarked) [compound 214] | – | – | 100 to 1000 | 100 to 1000 | – | 100 to 10000 | – | – |
| CC1C(=O)NC(Cc2c(F)c(F)c(F)c(F)c2F)C(=O)NCCCc2ccccc2OCCNC(C2CC2)C(=O)N1C (centres unmarked) [compound 318] | – | – | 0.1 to 10 | 1 to 100 | – | – | 0.1 to 10 | – |
| CC1C(=O)NC(Cc2ccc(F)cc2)C(=O)NCC#Cc2ccccc2OCCNC(C2CC2)C(=O)N1C (centres unmarked) [compound 354] | – | – | 10 to 100 | 1 to 100 | – | – | < 100 | – |
| CC1C(=O)NC(Cc2ccc(F)cc2)C(=O)NCCCc2cc(NS(C)(=O)=O)ccc2OCCNC(C2CC2)C(=O)N1C (centres unmarked) [compound 374] | – | – | 10 to 100 | 1 to 100 | – | – | < 100 | – |
| CCC(C)C1NCCOc2ccc(F)cc2CCCNC(=O)C(Cc2cccc(Cl)c2)NC(=O)C2(CCCC2)NC1=O (centres unmarked) [compound 382] | – | – | 10 to 100 | 100 to 1000 | – | – | < 100 | – |
| CCC(C)C1NCCOc2ccccc2C2CC2CNC(=O)C(Cc2cccc(Cl)c2)NC(=O)C2(CCCC2)NC1=O (centres unmarked) [compound 388] | – | – | 0.1 to 10 | 1 to 100 | – | – | 0.1 to 10 | – |
| CC1COc2ccccc2CCCNC(=O)C(Cc2ccc(F)cc2)NC(=O)C(C)N(C)C(=O)C(C2CC2)N1 (centres unmarked) [compound 394] | – | – | 0.1 to 10 | 100 to 1000 | – | – | 0.1 to 10 | – |
| CCN(CC)CCNC(=O)c1cc(Cl)c(N)cc1OC [metoclopramide, Metoclopramide, reference compound] | – | – | – | – | – | – | – | significant gastric emptying |
